These results are taken from patent US7981903B2, “2-[2-{phenylamino}-1H-pyrrolo[2,3-D]pyrimidin-4-yl)amino] benzamide derivatives as IGF-1R inhibitors for the treatment of cancer” (GlaxoSmithKline LLC, priority 2007, dated 2011).

As usually defined, the IC50 is the concentration that inhibits the measured activity by half. A lower IC50 goes with greater potency in that assay.

Bounds are passed on as bounds.

The target in assay [1] is T1, NIH-3T3 cells overexpressing human IGF-1R (Homo sapiens, UniProt P08069).
T1 construct: expressed in transfected cells; host or cells: NIH-3T3 (mouse fibroblasts)
T1 sequence (P08069 31-1367): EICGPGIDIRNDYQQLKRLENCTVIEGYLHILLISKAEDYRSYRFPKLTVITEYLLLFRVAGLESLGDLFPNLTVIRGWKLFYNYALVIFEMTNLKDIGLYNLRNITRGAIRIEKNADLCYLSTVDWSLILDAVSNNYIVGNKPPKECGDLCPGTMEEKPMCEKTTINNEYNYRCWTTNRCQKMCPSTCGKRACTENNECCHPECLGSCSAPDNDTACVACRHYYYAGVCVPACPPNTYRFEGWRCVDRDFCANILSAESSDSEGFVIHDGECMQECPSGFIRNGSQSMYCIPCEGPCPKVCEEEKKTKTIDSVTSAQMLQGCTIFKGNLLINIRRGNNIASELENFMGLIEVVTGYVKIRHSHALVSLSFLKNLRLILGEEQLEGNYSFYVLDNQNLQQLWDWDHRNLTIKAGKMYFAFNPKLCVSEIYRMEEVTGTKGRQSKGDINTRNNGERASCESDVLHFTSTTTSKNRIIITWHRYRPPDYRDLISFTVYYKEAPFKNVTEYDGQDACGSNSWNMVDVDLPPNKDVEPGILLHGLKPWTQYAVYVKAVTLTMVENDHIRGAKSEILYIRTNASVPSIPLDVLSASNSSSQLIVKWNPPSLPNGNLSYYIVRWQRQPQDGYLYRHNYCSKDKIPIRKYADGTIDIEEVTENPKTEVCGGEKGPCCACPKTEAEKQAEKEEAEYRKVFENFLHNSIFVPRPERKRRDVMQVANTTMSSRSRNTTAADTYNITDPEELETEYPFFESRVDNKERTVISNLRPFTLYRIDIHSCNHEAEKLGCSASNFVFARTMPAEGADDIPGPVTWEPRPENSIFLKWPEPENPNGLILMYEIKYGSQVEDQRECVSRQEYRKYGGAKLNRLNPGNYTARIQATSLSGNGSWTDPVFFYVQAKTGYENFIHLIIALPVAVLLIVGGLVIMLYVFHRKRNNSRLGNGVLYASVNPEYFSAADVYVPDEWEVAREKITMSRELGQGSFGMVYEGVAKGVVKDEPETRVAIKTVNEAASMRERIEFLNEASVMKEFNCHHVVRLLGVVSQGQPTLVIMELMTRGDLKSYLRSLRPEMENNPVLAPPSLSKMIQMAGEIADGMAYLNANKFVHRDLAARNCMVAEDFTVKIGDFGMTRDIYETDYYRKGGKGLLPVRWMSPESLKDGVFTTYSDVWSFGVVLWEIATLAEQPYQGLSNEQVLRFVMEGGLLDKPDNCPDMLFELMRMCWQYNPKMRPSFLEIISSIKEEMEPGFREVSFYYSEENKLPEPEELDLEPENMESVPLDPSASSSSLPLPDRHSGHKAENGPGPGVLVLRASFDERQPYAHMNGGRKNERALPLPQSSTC
Put plainly: IGF-1R cellular autophosphorylation (DELFIA). Type of assay: cell-based. Put shortly:
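Receptor autophosphorylation measured by DELFIA, capturing IGF-1R or IRβ and detecting with europium anti-pTyr, reported as percent of IGF-1- or insulin-stimulated signal. Compounds (30 uM to 1.5 nM) added 2 h before ligand, then 15 min stimulation (IGF-1 30 ng/ml or insulin 3 ug/ml).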

The target in assay [2] is ALK (Homo sapiens, UniProt Q9UM73). Put plainly: ALK enzyme assay (HTRF). Type of assay: biochemical. Particulars: 0.25 nM ALK, 15.0 μM ATP, values given as pIC50 category. Put shortly: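 Final compound range 0.00017 to 10 μM (twelve 1:3 dilutions). Kinase reaction with ATP and biotinylated synthetic peptide runs 120 min at 20° C, stopped with EDTA; phosphotyrosine detected by HTRF after 60 min. Inhibition referenced to DMSO (1%) and EDTA (0.1 M) controls, curve-fitted.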
ALK, sequence (Q9UM73 19-1620): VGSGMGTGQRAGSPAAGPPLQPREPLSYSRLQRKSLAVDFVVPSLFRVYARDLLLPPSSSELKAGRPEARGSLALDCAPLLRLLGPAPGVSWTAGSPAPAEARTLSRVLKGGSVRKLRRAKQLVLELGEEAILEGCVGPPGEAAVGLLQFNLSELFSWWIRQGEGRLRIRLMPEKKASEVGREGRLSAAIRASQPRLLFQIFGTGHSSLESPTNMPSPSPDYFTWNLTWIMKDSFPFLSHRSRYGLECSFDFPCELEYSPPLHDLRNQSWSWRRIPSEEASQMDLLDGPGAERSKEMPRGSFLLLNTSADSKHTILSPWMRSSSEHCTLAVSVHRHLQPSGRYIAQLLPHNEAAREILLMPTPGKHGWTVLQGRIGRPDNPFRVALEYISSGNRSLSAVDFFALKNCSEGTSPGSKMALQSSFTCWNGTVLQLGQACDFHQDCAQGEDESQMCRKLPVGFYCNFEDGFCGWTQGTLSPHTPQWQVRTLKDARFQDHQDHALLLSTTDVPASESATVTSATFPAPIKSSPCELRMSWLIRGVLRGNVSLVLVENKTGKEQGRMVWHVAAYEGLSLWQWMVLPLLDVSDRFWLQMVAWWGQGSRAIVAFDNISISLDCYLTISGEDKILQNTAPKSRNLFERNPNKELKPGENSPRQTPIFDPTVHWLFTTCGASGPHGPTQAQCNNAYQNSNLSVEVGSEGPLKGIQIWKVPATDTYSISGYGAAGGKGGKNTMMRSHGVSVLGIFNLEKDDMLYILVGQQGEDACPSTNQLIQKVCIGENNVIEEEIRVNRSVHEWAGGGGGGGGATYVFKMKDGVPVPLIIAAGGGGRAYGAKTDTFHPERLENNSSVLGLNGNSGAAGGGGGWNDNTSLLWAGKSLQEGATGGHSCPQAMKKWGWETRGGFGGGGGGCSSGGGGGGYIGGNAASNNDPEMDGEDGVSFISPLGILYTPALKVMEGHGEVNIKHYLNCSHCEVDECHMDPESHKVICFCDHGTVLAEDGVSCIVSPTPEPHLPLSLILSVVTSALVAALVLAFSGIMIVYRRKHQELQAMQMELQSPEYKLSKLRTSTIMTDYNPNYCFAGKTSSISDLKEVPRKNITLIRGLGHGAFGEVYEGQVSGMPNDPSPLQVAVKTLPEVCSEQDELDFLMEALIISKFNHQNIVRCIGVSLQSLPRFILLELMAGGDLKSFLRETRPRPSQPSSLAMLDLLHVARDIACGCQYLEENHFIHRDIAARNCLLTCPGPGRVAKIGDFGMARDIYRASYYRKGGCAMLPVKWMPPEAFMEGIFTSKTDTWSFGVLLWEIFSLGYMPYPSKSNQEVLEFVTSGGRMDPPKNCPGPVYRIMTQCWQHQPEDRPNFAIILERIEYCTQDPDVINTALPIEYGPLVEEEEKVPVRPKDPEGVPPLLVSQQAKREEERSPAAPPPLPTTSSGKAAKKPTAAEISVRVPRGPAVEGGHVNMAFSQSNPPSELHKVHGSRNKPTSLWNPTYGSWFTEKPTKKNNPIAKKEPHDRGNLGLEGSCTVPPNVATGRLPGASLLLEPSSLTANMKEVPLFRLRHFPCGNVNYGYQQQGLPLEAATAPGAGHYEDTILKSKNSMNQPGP

Consider `COc1cc(N2CCC(N3CCCC(F)(F)C3)CC2)ccc1Nc1nc(Nc2cc(F)ccc2C(N)=O)c2cc[nH]c2n1` [Example 77, 2-[(2-{[4-(3,3-difluoro-1,4′-bipiperidin-1′-yl)-2-(methyloxy)phenyl]amino}-1H-pyrrolo[2,3-d]pyrimidin-4-yl)amino]-4-fluorobenzamide], for which the results for the IC50 in assay [1] and in assay [2] were 100 to 500 nM and 1.26 to 3.98 nM, respectively.
For `COc1ccc(N2CCN(C(C)C)CC2)cc1Nc1nc(Nc2ccccc2C(N)=O)c2cc[nH]c2n1` [Example 10, 2-[(2-{[5-[4-(1-methylethyl)-1-piperazinyl]-2-(methyloxy)phenyl]amino}-1H-pyrrolo[2,3-d]pyrimidin-4-yl)amino]benzamide], the IC50 in assay [1] is 100 to 500 nM; in assay [2], 1.26 to 3.98 nM.
For `COc1cc(N2CCC(N3CCOCC3)CC2)ccc1Nc1nc(Nc2ccc(F)cc2C(N)=O)c2cc[nH]c2n1` [Example 59, 5-fluoro-2-{[2-({2-(methyloxy)-4-[4-(4-morpholinyl)-1-piperidinyl]phenyl}amino)-1H-pyrrolo[2,3-d]pyrimidin-4-yl]amino}benzamide], the IC50 is < 100 nM in assay [1] and 0.251 to 1 nM in assay [2].
Consider `CCCN1CCC=C(c2ccc(Nc3nc(Nc4cc(F)ccc4C(=O)N[C@@H](C)CC)c4cc[nH]c4n3)c(OC)c2)C1` [Example 87, 4-fluoro-2-[(2-{[2-(methyloxy)-4-(1-propyl-1,2,5,6-tetrahydro-3-pyridinyl)phenyl]amino}-1H-pyrrolo[2,3-d]pyrimidin-4-yl)amino]-N-[(1S)-1-methylpropyl]benzamide], for which the IC50 is > 500 nM in assay [1] and 0.251 to 1 nM in assay [2].
Consider `COc1cc(N2CCN(C(C)C)CC2)c(OC)cc1Nc1nc(Nc2cc(F)ccc2C(N)=O)c2cc[nH]c2n1` [Example 82, 4-fluoro-2-[(2-{[4-[4-(1-methylethyl)-1-piperazinyl]-2,5-bis(methyloxy)phenyl]amino}-1H-pyrrolo[2,3-d]pyrimidin-4-yl)amino]benzamide], for which the IC50 in assay [1] is < 100 nM; in assay [2], 1.26 to 3.98 nM.
Consider `COc1cc(N2CCN(C(C)C)CC2)ccc1Nc1nc(Nc2cc(F)cc(OC)c2C(N)=O)c2cc[nH]c2n1` [Example 88], for which the half-inhibitory concentration (IC50) in assay [1] was > 500 nM; in assay [2] it was 1.26 to 3.98 nM.
Turning to `COc1cc(N2CCN(C(C)=O)CC2)ccc1Nc1nc(Nc2cc(F)c(F)cc2C(N)=O)c2cc[nH]c2n1` [Example 103, 2-[(2-{[4-(4-acetyl-1-piperazinyl)-2-(methyloxy)phenyl]amino}-1H-pyrrolo[2,3-d]pyrimidin-4-yl)amino]-4,5-difluorobenzamide], the IC50 is < 100 nM in assay [1] and 1.26 to 3.98 nM in assay [2].
For `COc1cc(C2=CCN(C(C)C)CC2)ccc1Nc1nc(Nc2cc(F)ccc2C(N)=O)c2cc[nH]c2n1` [Example 72, 4-fluoro-2-[(2-{[4-[1-(1-methylethyl)-1,2,3,6-tetrahydro-4-pyridinyl]-2-(methyloxy)phenyl]amino}-1H-pyrrolo[2,3-d]pyrimidin-4-yl)amino]benzamide], in that order: < 100 nM and 0.251 to 1 nM.
Regarding `COc1cc(N2CCC(N3CC[C@H](F)C3)CC2)ccc1Nc1nc(Nc2cccc(F)c2C(N)=O)c2cc[nH]c2n1` [Example 43, 2-fluoro-6-[(2-{[4-{4-[(3S)-3-fluoro-1-pyrrolidinyl]-1-piperidinyl}-2-(methyloxy)phenyl]amino}-1H-pyrrolo[2,3-d]pyrimidin-4-yl)amino]benzamide], the IC50 in assay [1] was 100 to 500 nM; in assay [2], 1.26 to 3.98 nM.
Turning to `COc1cc(N2CCOC[C@@H]2C)ccc1Nc1nc(Nc2cc(F)c(F)cc2C(N)=O)c2cc[nH]c2n1` [Example 105, 4,5-difluoro-2-[(2-{[4-[(3S)-3-methyl-4-morpholinyl]-2-(methyloxy)phenyl]amino}-1H-pyrrolo[2,3-d]pyrimidin-4-yl)amino]benzamide], the values for the IC50 in assay [1] and in assay [2] were < 100 nM and 1.26 to 3.98 nM, respectively.
